Laboratory results published in PubChem BioAssay AID2060892 (Molecular Pharmacology Branch, DTP, NCI, 2025).

Test system: HOP-62 complex spheroids with HUVEC/MSC, viability
Test: Anticancer human tumor HOP-62 cell line growth inhibition [RAS];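 also: spheroids exposed to agents for seven days before readout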;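 as to viability, T/C: 100% = DMSO vehicle control viability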
Conditions: for IC50: curve of first compound; for viability, T/C: stronger effect = lower value
Summary of the method: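 Tumour cells grown as complex spheroids with HUVEC endothelial cells and mesenchymal stem cells, treated with RAS pathway inhibitor combinations. Each agent spans half-log steps from near clinical Cmax, or 10 microM where Cmax is unknown.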

[1] = second compound 0.000949 µM, first compound 0.0316 µM
[2] = second compound 0.000949 µM, first compound 0.1 µM
[3] = second compound 0.000949 µM, first compound 0.316 µM
[4] = second compound 0.000949 µM, first compound 1 µM
[5] = second compound 0.000949 µM, first compound 3.16 µM
[6] = second compound 0.000949 µM, first compound 10 µM
[7] = second compound 0.003 µM, first compound 0.0316 µM
[8] = second compound 0.003 µM, first compound 0.1 µM
[9] = second compound 0.003 µM, first compound 0.316 µM
[10] = second compound 0.003 µM, first compound 1 µM
[11] = second compound 0.003 µM, first compound 3.16 µM
[12] = second compound 0.003 µM, first compound 10 µM
[13] = second compound 0.00949 µM, first compound 0.0316 µM
[14] = second compound 0.00949 µM, first compound 0.1 µM
[15] = second compound 0.00949 µM, first compound 0.316 µM
[16] = second compound 0.00949 µM, first compound 1 µM
[17] = second compound 0.00949 µM, first compound 3.16 µM
[18] = second compound 0.00949 µM, first compound 10 µM
[19] = second compound 0.03 µM, first compound 0.0316 µM
[20] = second compound 0.03 µM, first compound 0.1 µM
[21] = second compound 0.03 µM, first compound 0.316 µM
[22] = second compound 0.03 µM, first compound 1 µM
[23] = second compound 0.03 µM, first compound 3.16 µM
[24] = second compound 0.03 µM, first compound 10 µM
[25] = second compound 0.0949 µM, first compound 0.0316 µM
[26] = second compound 0.0949 µM, first compound 0.1 µM
[27] = second compound 0.0949 µM, first compound 0.316 µM
[28] = second compound 0.0949 µM, first compound 1 µM
[29] = second compound 0.0949 µM, first compound 3.16 µM
[30] = second compound 0.0949 µM, first compound 10 µM
[31] = second compound 0.3 µM, first compound 0.0316 µM
[32] = second compound 0.3 µM, first compound 0.1 µM
[33] = second compound 0.3 µM, first compound 0.316 µM
[34] = second compound 0.3 µM, first compound 1 µM
[35] = second compound 0.3 µM, first compound 3.16 µM
[36] = second compound 0.3 µM, first compound 10 µM

Work on `CC(C)NCC(C(=O)N1CCN(c2ncnc3c2C(C)CC3O)CC1)c1ccc(Cl)cc1` (stereo not drawn) + CCn1c(-c2cccnc2C(C)OC)c2c3cc(ccc31)N1CCOC(CC(NC(=O)C(C(C)C)N(C)C(=O)C3(F)CCN(C(=O)C#CC(C)(C)N(C)C)CC3)C(=O)N3CCCC(N3)C(=O)OCC(C)(C)C2)C1 yielded an IC50 (second compound 0.000949 µM) of 3570 nM, an IC50 (second compound 0.003 µM) of 2210 nM and an IC50 (second compound 0.00949 µM) of 1650 nM. It also gave an IC50 (second compound 0.03 µM) of 1120 nM, an IC50 (second compound 0.0949 µM) of 1170 nM and an IC50 (second compound 0.3 µM) of 742 nM. It also gave a viability, T/C [1] of 98.8%, a viability, T/C [2] of 119% and a viability, T/C [3] of 65.4%. For the same compound, the viability, T/C [4] was 76.4%, the viability, T/C [5] was 61.6% and the viability, T/C [6] was 20.3%. For the same compound, the viability, T/C [7] was 101%, the viability, T/C [8] was 105% and the viability, T/C [9] was 65.3%. For the same compound, the viability, T/C [10] was 67.7%, the viability, T/C [11] was 47.1% and the viability, T/C [12] was 21.2%. The viability, T/C [13] was 81.7%, the viability, T/C [14] was 100% and the viability, T/C [15] was 80.1%. The viability, T/C [16] was 58.9%, the viability, T/C [17] was 38.5% and the viability, T/C [18] was 22%. The viability, T/C [19] was 122%, the viability, T/C [20] was 83.4% and the viability, T/C [21] was 72%. For the same compound, the viability, T/C [22] was 61.8%, the viability, T/C [23] was 28.3% and the viability, T/C [24] was 23%. The viability, T/C [25] was 79%, the viability, T/C [26] was 80.4% and the viability, T/C [27] was 69%. The viability, T/C [28] was 56.2%, the viability, T/C [29] was 25.5% and the viability, T/C [30] was 21.1%. For the same compound, the viability, T/C [31] was 73.2%, the viability, T/C [32] was 78.9% and the viability, T/C [33] was 59.3%. It also gave a viability, T/C [34] of 47%, a viability, T/C [35] of 26.4% and a viability, T/C [36] of 16.6%.
`CC(C)n1nc(-c2ccc3oc(N)nc3c2)c2c(N)ncnc21` + CCn1c(-c2cccnc2C(C)OC)c2c3cc(ccc31)N1CCOC(CC(NC(=O)C(C(C)C)N(C)C(=O)C3(F)CCN(C(=O)C#CC(C)(C)N(C)C)CC3)C(=O)N3CCCC(N3)C(=O)OCC(C)(C)C2)C1 gave an IC50 (second compound 0.000949 µM) of 31.6 nM, an IC50 (second compound 0.003 µM) of 11.8 nM and an IC50 (second compound 0.00949 µM) of 10.9 nM. The IC50 (second compound 0.03 µM) was 17.3 nM, the IC50 (second compound 0.0949 µM) was 7 nM and the IC50 (second compound 0.3 µM) was 6.72 nM. For the same compound, the viability, T/C (second compound 0.000949 µM, first compound 0.000316 µM) was 118%, the viability, T/C (second compound 0.000949 µM, first compound 0.001 µM) was 107% and the viability, T/C (second compound 0.000949 µM, first compound 0.00316 µM) was 64.2%. The viability, T/C (second compound 0.000949 µM, first compound 0.01 µM) was 74.7%, the viability, T/C [1] was 55.6% and the viability, T/C [2] was 30.6%. It also gave a viability, T/C (second compound 0.003 µM, first compound 0.000316 µM) of 105%, a viability, T/C (second compound 0.003 µM, first compound 0.001 µM) of 81% and a viability, T/C (second compound 0.003 µM, first compound 0.00316 µM) of 58.8%. It also gave a viability, T/C (second compound 0.003 µM, first compound 0.01 µM) of 56.3%, a viability, T/C [7] of 45.7% and a viability, T/C [8] of 25.4%. The viability, T/C (second compound 0.00949 µM, first compound 0.000316 µM) was 94.9%, the viability, T/C (second compound 0.00949 µM, first compound 0.001 µM) was 64% and the viability, T/C (second compound 0.00949 µM, first compound 0.00316 µM) was 65.3%. The viability, T/C (second compound 0.00949 µM, first compound 0.01 µM) was 53.4%, the viability, T/C [13] was 44.5% and the viability, T/C [14] was 26.1%. It also gave a viability, T/C (second compound 0.03 µM, first compound 0.000316 µM) of 80.7%, a viability, T/C (second compound 0.03 µM, first compound 0.001 µM) of 75.6% and a viability, T/C (second compound 0.03 µM, first compound 0.00316 µM) of 71.1%. The viability, T/C (second compound 0.03 µM, first compound 0.01 µM) was 67.7%, the viability, T/C [19] was 30.1% and the viability, T/C [20] was 30.6%. The viability, T/C (second compound 0.0949 µM, first compound 0.000316 µM) was 85.7%, the viability, T/C (second compound 0.0949 µM, first compound 0.001 µM) was 67.8% and the viability, T/C (second compound 0.0949 µM, first compound 0.00316 µM) was 61%. For the same compound, the viability, T/C (second compound 0.0949 µM, first compound 0.01 µM) was 52.2%, the viability, T/C [25] was 25.6% and the viability, T/C [26] was 30%. For the same compound, the viability, T/C (second compound 0.3 µM, first compound 0.000316 µM) was 75.7%, the viability, T/C (second compound 0.3 µM, first compound 0.001 µM) was 77.8% and the viability, T/C (second compound 0.3 µM, first compound 0.00316 µM) was 59.8%. For the same compound, the viability, T/C (second compound 0.3 µM, first compound 0.01 µM) was 45.3%, the viability, T/C [31] was 32.2% and the viability, T/C [32] was 30.6%.
Work on `CC(Nc1ccc2c(c1)OCCn1cc(N3C(=O)OCC3C(F)F)nc1-2)C(N)=O` (stereo not drawn) + CCn1c(-c2cccnc2C(C)OC)c2c3cc(ccc31)N1CCOC(CC(NC(=O)C(C(C)C)N(C)C(=O)C3(F)CCN(C(=O)C#CC(C)(C)N(C)C)CC3)C(=O)N3CCCC(N3)C(=O)OCC(C)(C)C2)C1 yielded an IC50 (second compound 0.000949 µM) of 659 nM, an IC50 (second compound 0.003 µM) of 649 nM and an IC50 (second compound 0.00949 µM) of 326 nM. It also gave an IC50 (second compound 0.03 µM) of 260 nM, an IC50 (second compound 0.0949 µM) of 182 nM and an IC50 (second compound 0.3 µM) of 152 nM. The viability, T/C [1] was 99.7%, the viability, T/C [2] was 75.4% and the viability, T/C [3] was 45.1%. It also gave a viability, T/C [4] of 54.2%, a viability, T/C [5] of 50.6% and a viability, T/C [6] of 23.9%. It also gave a viability, T/C [7] of 87%, a viability, T/C [8] of 85.9% and a viability, T/C [9] of 42.3%. For the same compound, the viability, T/C [10] was 50.9%, the viability, T/C [11] was 36.6% and the viability, T/C [12] was 19.6%. The viability, T/C [13] was 99.3%, the viability, T/C [14] was 60.1% and the viability, T/C [15] was 51.9%. The viability, T/C [16] was 46.9%, the viability, T/C [17] was 32.1% and the viability, T/C [18] was 22.4%. It also gave a viability, T/C [19] of 124%, a viability, T/C [20] of 59.4% and a viability, T/C [21] of 55.2%. It also gave a viability, T/C [22] of 42.3%, a viability, T/C [23] of 25.6% and a viability, T/C [24] of 22.8%. For the same compound, the viability, T/C [25] was 103%, the viability, T/C [26] was 53.9% and the viability, T/C [27] was 43.9%. The viability, T/C [28] was 37%, the viability, T/C [29] was 20.1% and the viability, T/C [30] was 19%. The viability, T/C [31] was 58.5%, the viability, T/C [32] was 49.8% and the viability, T/C [33] was 47.9%. It also gave a viability, T/C [34] of 30.2%, a viability, T/C [35] of 25.2% and a viability, T/C [36] of 19.1%.
Compound `C[C@@H](NC(=O)c1ncnc(N)c1Cl)c1ncc(C(=O)Nc2cc(C(F)(F)F)c(Cl)cn2)s1` + CCn1c(-c2cccnc2C(C)OC)c2c3cc(ccc31)N1CCOC(CC(NC(=O)C(C(C)C)N(C)C(=O)C3(F)CCN(C(=O)C#CC(C)(C)N(C)C)CC3)C(=O)N3CCCC(N3)C(=O)OCC(C)(C)C2)C1 has an IC50 (second compound 0.000949 µM) of over 10000 nM, an IC50 (second compound 0.003 µM) of over 10000 nM and an IC50 (second compound 0.00949 µM) of over 10000 nM. The IC50 (second compound 0.03 µM) was over 10000 nM, the IC50 (second compound 0.0949 µM) was over 10000 nM and the IC50 (second compound 0.3 µM) was over 10000 nM. It also gave a viability, T/C [1] of 113%, a viability, T/C [2] of 93% and a viability, T/C [3] of 86.2%. For the same compound, the viability, T/C [4] was 109%, the viability, T/C [5] was 108% and the viability, T/C [6] was 65.3%. The viability, T/C [7] was 115%, the viability, T/C [8] was 103% and the viability, T/C [9] was 87.9%. The viability, T/C [10] was 108%, the viability, T/C [11] was 87% and the viability, T/C [12] was 67.7%. The viability, T/C [13] was 95%, the viability, T/C [14] was 94.8% and the viability, T/C [15] was 85.3%. The viability, T/C [16] was 96.2%, the viability, T/C [17] was 77.7% and the viability, T/C [18] was 70.6%. For the same compound, the viability, T/C [19] was 96.8%, the viability, T/C [20] was 89.6% and the viability, T/C [21] was 95.8%. For the same compound, the viability, T/C [22] was 82.4%, the viability, T/C [23] was 64.5% and the viability, T/C [24] was 76%. It also gave a viability, T/C [25] of 94.7%, a viability, T/C [26] of 90.8% and a viability, T/C [27] of 81.7%. The viability, T/C [28] was 80.3%, the viability, T/C [29] was 68.1% and the viability, T/C [30] was 75.7%. For the same compound, the viability, T/C [31] was 86.3%, the viability, T/C [32] was 83.9% and the viability, T/C [33] was 77.5%. The viability, T/C [34] was 74.4%, the viability, T/C [35] was 68.9% and the viability, T/C [36] was 71.2%.
